Results on 25 compounds are retold here after patent publication US8088761B2, “Enzyme inhibitors” (Cancer Research Technology Limited, priority 2005, dated 2012).

Like-named read-outs stand apart in the source and are kept apart here.

The test system of one test is HCT116 cells. Briefly: Cell viability assay (MTT) in HCT116 cell line. It is filed as cell-based. To be noted: Homo sapiens, HCT-116, 72 hrs, IC50 range, read-out: HCT116 cell growth inhibition. On the procedure: Cell Viability Assay: Determination of IC50 of Aurora Inhibitors in HCT116 Cell Line Using MTT Assay. The effects of compounds of the Examples on cellular proliferation were determined using the MTT assay according to manufacturer's instructions (Sigma). Briefly, the human colon tumour cells HCT116, were seeded in triplicate into 96-well plates at 2500 cells/well 24 hours before treatment with a range of concentrations of Aurora inhibitors (0-50 μM). After 72 hrs, 15 μl/well of 0.5% 3-(4,5-dimethylthiazol-2-yl)-2,5-diphenyltetrazolium bromide (MTT) was added to the cells for 4 hrs at 37° C., the dye-stained viable cells were extracted by adding 150 μl/well of dimethyl sulphoxide (DMSO). […] The IC50 was calculated using the Prism software.

For the next test, the target named is T1, Aurora-A (Homo sapiens, UniProt O14965).
T1 sequence (O14965 1-403): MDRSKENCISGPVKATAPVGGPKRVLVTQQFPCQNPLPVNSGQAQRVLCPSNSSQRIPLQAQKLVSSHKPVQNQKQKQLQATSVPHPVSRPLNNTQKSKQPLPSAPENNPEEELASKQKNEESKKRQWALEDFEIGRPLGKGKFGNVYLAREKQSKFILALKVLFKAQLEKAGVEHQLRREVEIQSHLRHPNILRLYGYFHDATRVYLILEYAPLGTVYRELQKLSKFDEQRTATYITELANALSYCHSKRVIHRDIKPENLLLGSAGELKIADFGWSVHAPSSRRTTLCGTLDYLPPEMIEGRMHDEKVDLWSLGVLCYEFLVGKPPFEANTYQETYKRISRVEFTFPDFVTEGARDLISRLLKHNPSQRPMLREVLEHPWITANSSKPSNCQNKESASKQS
Briefly: Flashplate Aurora A enzyme inhibition assay. Format: biochemical. Here is the method: Flashplate® Assay for Identification and Evaluation of Aurora-A Inhibitors
On this assay 384-well Basic Flashplate® (SMP400E, PerkinElmer) as solid assay platform was used. The plates were coated overnight at 4° C. with […] at 100 μg/ml in PBS buffer and used after being washed twice with PBS. 5 μl of compound in 2% DMSO was added to each well followed by 15 μl master mix of kinase buffer (50 mM Tris pH 7.5, 10 mM NaCl, 2.5 mM MgCl2, 1 mM […], 20 μM ATP, and 0.025 μCi/μl ^33P-ATP). Finally, 250 ng per well of Aurora-A enzyme was added. The plate was shaken for approximately 2 min on a flat-bed plate shaker (Wellmix, Denley, UK) and incubated for 2 hours at room temperature. The reaction was stopped by washing the plate twice on a 16-pin wash (ELX50 BioTek Instruments Ltd., Northstar, Bedford, UK) with 10 mM sodium pyrophosphate. The plate was then read on a TopCount-NX™ (PerkinElmer Life Sciences UK Ltd., Hounslow, UK).

The mark [1] stands for this setting: Flashplate assay, IC50 range, read-out: Aurora-A inhibition.

As for `CN(C)c1ccc(-c2nc3c(N4CCN(CC(=O)N(C)c5ccccc5)CC4)c(Cl)cnc3[nH]2)cc1` [Example 3, 2-{4-[6-Chloro-2-(4-dimethylamino-phenyl)-3H-imidazo[4,5-b]pyridin-7-yl]-piperazin-1-yl}-N-methyl-N-phenyl-acetamide], the values for the IC50 in the test with HCT116 cells and on Aurora-A (setting [1]) were 2000 to 50000 nM and less than 500 nM, respectively. On the same counts, the results for `O=C(CN1CCN(c2c(Cl)cnc3[nH]c(-c4ccccc4)nc23)CC1)Nc1nccs1` [Example 4, 2-[4-(6-Chloro-2-phenyl-3H-imidazo[4,5-b]pyridin-7-yl)-piperazin-1-yl]-N-thiazol-2-yl-acetamide] are 500 to 2000 nM and less than 500 nM. For `O=C(CN1CCN(c2c(Br)cnc3[nH]c(-c4ccccc4)nc23)CC1)Nc1nccs1` [Example 5, 2-[4-(6-Bromo-2-phenyl-3H-imidazo[4,5-b]pyridin-7-yl)-piperazin-1-yl]-N-thiazol-2-yl-acetamide], the figures for the IC50 with HCT116 cells and at Aurora-A (setting [1]) were 2000 to 50000 nM and less than 500 nM, respectively. Take `CC(C)(C)OC(=O)NCc1ccc(-c2nc3c(N4CCN(CC(=O)Nc5nccs5)CC4)c(Br)cnc3[nH]2)cc1` [Example 6, (4-{6-Bromo-7-[4-(thiazol-2-ylcarbamoylmethyl)-piperazin-1-yl]-3H-imidazo[4,5-b]pyridin-2-yl}-benzyl)-carbamic acid tert-butyl ester]: the IC50 at Aurora-A (setting [1]) was in the range of 500 to 2000 nM. The same measure, in the same setting: with `CN(C)c1ccc(-c2nc3c(N4CCN(CCOc5ccccc5)CC4)c(Cl)cnc3[nH]2)cc1` [Example 9, (4-{6-Chloro-7-[4-(2-phenoxy-ethyl)-piperazin-1-yl]-3H-imidazo[4,5-b]pyridin-2-yl}-phenyl)-dimethyl-amine] the figure was less than 500 nM. On the same count and under the same terms, next, `CN(C)c1ccc(-c2nc3c(N4CCNCC4)c(Br)cnc3[nH]2)cc1` [Example 15, [4-(6-Bromo-7-piperazin-1-yl-3H-imidazo[4,5-b]pyridin-2-yl)-phenyl]-dimethyl-amine]: less than 500 nM; `CN(C)c1ccc(-c2nc3c(N4CCN(Cc5c(F)cccc5Cl)CC4)c(Cl)cnc3[nH]2)cc1` [Example 16, 4-(6-Chloro-7-(4-(2-chloro-6-fluorobenzyl)piperazin-1-yl)-3H-imidazo[4,5-b]pyridin-2-yl)-N,N-dimethylaniline]: 500 to 2000 nM. With `COc1ccc(C(=O)N2CCN(c3c(Cl)cnc4[nH]c(-c5ccc(N(C)C)cc5)nc34)CC2)cc1` [Example 18, (4-(6-Chloro-2-(4-(dimethylamino)phenyl)-3H-imidazo[4,5-b]pyridin-7-yl)piperazin-1-yl)(4-methoxyphenyl)methanone], the IC50 on Aurora-A (setting [1]) lay in the range of 2000 to 10000 nM. `CN(C)c1ccc(-c2nc3c(N4CCN(C(=O)Nc5ccccc5)CC4)c(Br)cnc3[nH]2)cc1` [Example 39, 4-(6-Bromo-2-(4-(dimethylamino)phenyl)-3H-imidazo[4,5-b]pyridin-7-yl)-N-phenylpiperazine-1-carboxamide] showed an IC50 at Aurora-A of less than 500 nM. For `CN(C)c1ccc(-c2nc3c(N4CCN(CCNC(=O)Nc5ccccc5)CC4)c(Br)cnc3[nH]2)cc1` [Example 41, 1-(2-(4-(6-Bromo-2-(4-(dimethylamino)phenyl)-3H-imidazo[4,5-b]pyridin-7-yl)piperazin-1-yl)ethyl)-3-phenylurea], the IC50 on Aurora-A (setting [1]) was less than 500 nM. `CCNC(=O)N1CCN(c2c(Br)cnc3[nH]c(-c4ccc(N(C)C)cc4)nc23)CC1` [Example 43, 4-(6-Bromo-2-(4-(dimethylamino)phenyl)-3H-imidazo[4,5-b]pyridin-7-yl)-N-ethylpiperazine-1-carboxamide]: the IC50 on Aurora-A (setting [1]) is less than 500 nM. On the same count and under the same terms, with `CCOC(=O)C1CC1c1nc2c(N3CCN(CC(=O)Nc4nccs4)CC3)c(Br)cnc2[nH]1` (stereo not shown) [Example 45, Ethyl 2-(6-bromo-7-(4-(2-oxo-2-(thiazol-2-ylamino)ethyl)piperazin-1-yl)-3H-imidazo[4,5-b]pyridin-2-yl)cyclopropanecarboxylate] the figure was 500 to 2000 nM; with `CCN1CCN(c2c(Br)cnc3[nH]c(-c4ccc(N(C)C)cc4)nc23)CC1` [Example 47, 4-(6-Bromo-7-(4-ethylpiperazin-1-yl)-3H-imidazo[4,5-b]pyridin-2-yl)-N,N-dimethylaniline], 500 to 2000 nM; with `CN(C)c1ccc(-c2nc3c(N4CCN(c5ccccc5)CC4)c(Br)cnc3[nH]2)cc1` [Example 48, 4-(6-Bromo-7-(4-phenylpiperazin-1-yl)-3H-imidazo[4,5-b]pyridin-2-yl)-N,N-dimethylaniline], less than 500 nM.

Consider `COc1ncccc1-c1nc2c(N3CCN(Cc4cccnc4)CC3)c(Br)cnc2[nH]1` [Example 55, 6-Bromo-2-(2-methoxypyridin-3-yl)-7-(4-(pyridin-3-ylmethyl)piperazin-1-yl)-3H-imidazo[4,5-b]pyridine], for which, on Aurora-A (setting [1]), the IC50 fell in the range of 500 to 2000 nM. With `Brc1cnc2[nH]c(-c3ccc(CN4CCOCC4)cc3)nc2c1N1CCN(Cc2ccncc2)CC1` [Example 68, 6-Bromo-2-(4-morpholin-4-ylmethyl-phenyl)-7-(4-pyridin-4-ylmethyl-piperazin-1-yl)-3H-imidazo[4,5-b]pyridine], in the test with HCT116 cells, the IC50 was less than 500 nM. Consider `CC(c1ccccc1)N1CCN(c2c(Br)cnc3[nH]c(-c4ccc(N5CCC(O)CC5)cc4)nc23)CC1` (stereo not shown) [Example 88, 1-(4-{6-Bromo-7-[4-(1-phenyl-ethyl)-piperazin-1-yl]-3H-imidazo[4,5-b]pyridin-2-yl}-phenyl)-piperidin-4-ol], for which, on Aurora-A (setting [1]), the IC50 was less than 500 nM.

On to `CC(C)(C)OC(=O)NCc1cccc(-c2nc3c(N4CCN(Cc5cccnc5)CC4)c(Br)cnc3[nH]2)c1` [Example 91, tert-Butyl 3-(6-bromo-7-(4-(pyridin-3-ylmethyl)piperazin-1-yl)-3H-imidazo[4,5-b]pyridin-2-yl)benzylcarbamate], for which the IC50 on Aurora-A (setting [1]) is less than 500 nM. The same measure, in the same setting: with `CC(C)(C)OC(=O)N1CCN(c2ccc(-c3nc4c(N5CCN(Cc6cccnc6)CC5)c(Br)cnc4[nH]3)cc2)CC1` [Example 103, tert-Butyl 4-(4-(6-bromo-7-(4-(pyridin-3-ylmethyl)piperazin-1-yl)-3H-imidazo[4,5-b]pyridin-2-yl)phenyl)piperazine-1-carboxylate] the figure was less than 500 nM. Still for that read-out and setting: next, `FC(F)(F)c1ccc(CN2CCN(c3c(Br)cnc4[nH]c(-c5ccc(N6CCOCC6)cc5)nc34)CC2)cn1` [Example 126, 4-(4-(6-Bromo-7-(4-((6-(trifluoromethyl)pyridin-3-yl)methyl)piperazin-1-yl)-3H-imidazo[4,5-b]pyridin-2-yl)phenyl)morpholine]: less than 500 nM. Still for that read-out and setting: with `CC(C)c1nc(CN2CCN(c3c(Br)cnc4[nH]c(-c5ccc(CN6CCOCC6)cc5)nc34)CC2)co1` [Example 146, 4-(4-(6-Bromo-7-(4-((2-isopropyloxazol-4-yl)methyl)piperazin-1-yl)-3H-imidazo[4,5-b]pyridin-2-yl)benzyl)morpholine] the figure was less than 500 nM; with `COc1ccc(-c2nc3c(N4CCN(Cc5nccs5)CC4)c(Br)cnc3[nH]2)cc1` [Example 151, 2-((4-(6-Bromo-2-(4-methoxyphenyl)-3H-imidazo[4,5-b]pyridin-7-yl)piperazin-1-yl)methyl)thiazole], less than 500 nM.

For `COc1ccc(-c2nc3c(N4CCN(Cc5csc(C(C)C)n5)CC4)c(Br)cnc3[nH]2)cc1` [Example 153, 4-((4-(6-Bromo-2-(4-methoxyphenyl)-3H-imidazo[4,5-b]pyridin-7-yl)piperazin-1-yl)methyl)-2-isopropylthiazole], the IC50 at Aurora-A (setting [1]) is less than 500 nM. The same measure, in the same setting: with `Cc1nc(CN2CCN(c3c(Br)cnc4[nH]c(-c5ccc(CN6CCN(C(=O)OC(C)(C)C)CC6)cc5)nc34)CC2)cs1` [Example 157, tert-Butyl 4-(4-(6-bromo-7-(4-((2-methylthiazol-4-yl)methyl)piperazin-1-yl)-3H-imidazo[4,5-b]pyridin-2-yl)benzyl)piperazine-1-carboxylate] the figure was less than 500 nM. As for `Cc1nc(CN2CCN(c3c(Br)cnc4[nH]c(-c5ccc(N6CCN(C(=O)OC(C)(C)C)CC6)cc5)nc34)CC2)cs1` [Example 158, tert-Butyl 4-(4-(6-bromo-7-(4-((2-methylthiazol-4-yl)methyl)piperazin-1-yl)-3H-imidazo[4,5-b]pyridin-2-yl)phenyl)piperazine-1-carboxylate], the IC50 on Aurora-A (setting [1]) was less than 500 nM.
